Consider 7 molecules from patent publication US20050239899A1, “Beta-secretase inhibitors” (priority 2002, published 2005).

One assay has as its target T1, rhBACE (Homo sapiens, UniProt P56817).
T1 construct: purchased R&D systems 931-AS
The experiment in a line: Fluorescence BACE assay. The format is biochemical. Particulars: EDANS/Dabcyl peptide substrate, pH 5, 2 hours at 37 C. On the procedure:
The inhibitory activity of the compounds of the invention was shown in an in vitro assay, namely a fluorescence BACE assay.
The assay was set up in triplicate wells of 96 well black plate. rhBACE was diluted to 1 unit/well in […] (PBS +0.5% Triton-X 100, pH 5). BACE enzyme (obtained from R&D systems (ca.No. 931-AS), reference: Vasser et al., 1999, Science 286, 735-741) was incubated with various concentrations of inhibitor compound (10 nM to 500 µM) for 5 min; Reaction was started by adding peptide substrate (obtained from BACHEM (cat. No. M-2470), reference: Ermolieff et al., Biochemistry 39 (2000) 12450-56) with EDANS/Dabcyl labels. After incubation for 2 hours at 37 C the results were read in fluoroplate reader at 355 nm/486 nm.

A further assay concerns cells. The experiment in a line: cellular assay (activity in cells). It counts as cell-based. The source says:
As combined pharmacophore, for example, a combination of common pharmacophore for aspartyl proteases and a surface-based (surf2lead®) pharmacophore of the crystallized beta-secretase:OM922 complex can be used. For the common pharmacophore of the aspartyl proteases the active center was employed for generation of the pharmacophore. For the surf2lead approach the surface of the active center of the beta-secretase: OM922 complex crystallized with inhibitor was used for generation of the pharmacophore. A query for PHACIR screening was generated from a combination of the two pharmacophores. The compounds of the focused library identified by virtual screening then can be subjected to an in vitro assay, e.g. a fluorescence BACE assay, or a cellular assay in order to determine its possible inhibitory action.

T1 sequence (P56817 46-501): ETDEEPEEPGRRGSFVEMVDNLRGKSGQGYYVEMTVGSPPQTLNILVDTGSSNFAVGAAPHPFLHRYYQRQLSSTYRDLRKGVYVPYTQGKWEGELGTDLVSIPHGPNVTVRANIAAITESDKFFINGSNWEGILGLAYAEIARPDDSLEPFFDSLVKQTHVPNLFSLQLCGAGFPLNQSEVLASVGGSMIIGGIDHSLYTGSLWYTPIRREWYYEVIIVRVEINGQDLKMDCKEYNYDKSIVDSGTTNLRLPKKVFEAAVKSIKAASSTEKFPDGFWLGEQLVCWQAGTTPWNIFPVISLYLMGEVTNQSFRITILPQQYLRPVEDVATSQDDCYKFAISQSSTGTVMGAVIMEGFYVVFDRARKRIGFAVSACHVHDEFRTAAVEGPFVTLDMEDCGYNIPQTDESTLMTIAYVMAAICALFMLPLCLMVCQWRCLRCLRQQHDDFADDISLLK

As usually defined, the IC50 is the point on the concentration scale where inhibition reaches its midpoint. The molecule `Oc1c(Cl)cc(Cl)cc1/C=N/Nc1c(Cl)cncc1Cl` [ID2] yielded an IC50 against rhBACE of 29 µM. Turning to `Oc1c(Cl)cc(Cl)cc1/C=N/Nc1ncnc2sc3c(c12)CCCC3` [ID5], the IC50 at rhBACE was 53 µM. Still for that read-out and setting: under `O=C(Nc1cc(-c2ccc(Cl)cc2)nn1-c1ccc(I)cc1)C1CCC1` [ID1] stands 45 µM. Regarding `C/C(=N\Nc1ccccc1)c1cc(Cl)cc(Cl)c1O` [ID7], the “activity in cells / cell permeability” value with cells is “especially cell-permeable active compounds”. This molecule displayed an IC50 at rhBACE of 14.4 µM.

At rhBACE, `O=[N+]([O-])c1cc(C(F)(F)F)cc([N+](=O)[O-])c1N/N=C/c1cc(Cl)cc(Cl)c1O` [ID6] yielded an IC50 of 39.3 µM. As to `C/C(=N\OC(=O)c1c(-c2c(Cl)cccc2Cl)noc1C)c1ccccc1O` [ID4], at rhBACE, the concentration for half-maximal inhibition (IC50) was 140 to 170 µM. As to `C=CCn1c(SCc2ccc(Cl)cc2)nc2sc3c(c2c1=N)CCCC3` [ID3], in the assay with cells, the “activity in cells / cell permeability” value is “especially cell-permeable active compounds”. In addition, the IC50 against rhBACE is 10 µM.
